Columns and labels:
[1] = Relaxivity measurements at 1.41 T in water; format: physicochemical; details: 37° C., normalized to Gd
Protocol: (§1) Relaxivity measurements at 1.41 T were performed using a MiniSpec mq60 spectrometer (Bruker Analytik, Karlsruhe, Germany) operating at a resonance frequency of 60 MHz and a temperature of 37° C. The T1 relaxation times were determined using the standard inversion recovery (IR) method with a fixed relaxation delay of at least 5×T1. The variable inversion time (TI) was calculated automatically by the standard software of the MiniSpec mq60 (8 steps). The T2 measurements were performed by using a Carr-Purcell-Meiboom-Gill (CPMG) pulse sequence, applying a relaxation delay of at least 5×T1.
Each relaxivity measurement was performed using three different Gd concentrations (3 concentrations between 0.05 and 2 mM). […] Human plasma preparation: For each experiment fresh blood was taken from a volunteer using 10 mL citrate-tubes (Sarstedt S-Monovette 02.1067.001, 10 mL, Citrate). The 10 mL citrate-tubes were carefully inverted 10 times to mix blood and anticoagulant and centrifuged for 15 min at 1811 g at RT (Eppendorf, Centrifuge 5810R).
(§2) The relaxivities n (where i=1, 2) were calculated based on the measured relaxation rates Ri in water and plasma: […]

[2] = Relaxivity measurements at 1.41 T in human plasma; format: physicochemical; details: 37° C., normalized to Gd
Protocol: as §1, with “The” for “Relaxivity measurements at 1.41 T were performed using a MiniSpec mq60 spectrometer (Bruker Analytik, Karlsruhe, Germany) operating at a resonance frequency of 60 MHz and a temperature of 37° C. The”
Each relaxivity measurement was performed using three different Gd concentrations (3 concentrations between 0.05 and 2 mM).
as §2

[3] = biological target: T1, OATP1B3 (Homo sapiens, UniProt Q9NPD5); assay: Uptake into stable transfected OATP1B3 HEK 293 cells; format: cell-based; details: for Uptake into OATP1B3-HEK 293 cells: 40 min incubation, relative to RC1 (Gd-EOB-DTPA); for Inhibition Rifampicine: uptake into OATP1B3-HEK 293 cells
T1 sequence (Q9NPD5 1-702): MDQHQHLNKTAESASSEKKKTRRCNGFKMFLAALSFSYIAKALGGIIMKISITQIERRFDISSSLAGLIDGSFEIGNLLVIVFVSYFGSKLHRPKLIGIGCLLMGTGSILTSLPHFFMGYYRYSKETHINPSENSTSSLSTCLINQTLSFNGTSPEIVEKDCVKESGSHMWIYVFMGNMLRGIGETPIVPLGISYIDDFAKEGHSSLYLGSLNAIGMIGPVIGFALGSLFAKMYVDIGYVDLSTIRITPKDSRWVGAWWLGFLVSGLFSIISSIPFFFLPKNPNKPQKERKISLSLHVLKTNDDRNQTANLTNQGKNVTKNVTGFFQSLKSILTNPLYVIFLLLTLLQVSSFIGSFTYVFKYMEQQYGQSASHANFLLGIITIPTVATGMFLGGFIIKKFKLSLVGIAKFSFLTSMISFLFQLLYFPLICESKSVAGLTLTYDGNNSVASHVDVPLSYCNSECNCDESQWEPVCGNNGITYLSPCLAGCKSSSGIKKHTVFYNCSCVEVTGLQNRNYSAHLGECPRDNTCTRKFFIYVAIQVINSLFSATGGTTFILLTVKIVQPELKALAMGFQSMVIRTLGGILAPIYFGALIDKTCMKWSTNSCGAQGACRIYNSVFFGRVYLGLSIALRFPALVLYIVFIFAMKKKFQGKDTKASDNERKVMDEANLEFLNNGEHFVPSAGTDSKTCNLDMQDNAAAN
Protocol: (§3) Cryopreserved cells were shortly thawed in water bath and diluted in 10 mL warm culture medium (37° C.). After medium change the cells were grown for 3d in a 25 cm^2 cell culture flask. After 3 to 5d the cells were transferred into 75 cm^2 flasks. […] All test items were prepared in transport buffer at a final concentration of 100 µM from stock solutions (180 to 500 mM concentration). The OATP1B3 HEK 293 cells were incubated with test solutions (test item in transport buffer 500 μL) for 40 min on a thermoshaker without shaking (PHMP, Fa. Grant Bio). Triplicates were performed for each test item. After incubation the cells were washed with 2 mL of cold PBS (+) buffer (Dulbeccos PBS+, Fa. Gibco). […] As a reference standard Gd-EOB-DTPA (gadoxetate) is used in the same well plate.

[4] = Water solubility in aqueous buffer; details: aqueous buffer 10 mM Tris-HCl, pH 7.4, 20° C.
Protocol: The solid compounds were added stepwise to the buffer solution. More substance is added once all the suspended material is dissolved until an equilibrium between undissolved and dissolved substance is reached. The suspension was mixed using a shaker (Heidolph Reax 2000) and treated 5 min in an ultrasound bath (Bandelin, Sonorex Super RK255H).

[5] = biological target: T2, OATP1B1 (Homo sapiens, UniProt Q9Y6L6); assay: Uptake into stable transfected OATP1B1 HEK 293 cells; format: cell-based; details: for Uptake into OATP1B1-HEK 293 cells: 40 min incubation, relative to RC1 (Gd-EOB-DTPA); for Inhibition Rifampicine: uptake into OATP1B1-HEK 293 cells
T2 sequence (Q9Y6L6 1-691): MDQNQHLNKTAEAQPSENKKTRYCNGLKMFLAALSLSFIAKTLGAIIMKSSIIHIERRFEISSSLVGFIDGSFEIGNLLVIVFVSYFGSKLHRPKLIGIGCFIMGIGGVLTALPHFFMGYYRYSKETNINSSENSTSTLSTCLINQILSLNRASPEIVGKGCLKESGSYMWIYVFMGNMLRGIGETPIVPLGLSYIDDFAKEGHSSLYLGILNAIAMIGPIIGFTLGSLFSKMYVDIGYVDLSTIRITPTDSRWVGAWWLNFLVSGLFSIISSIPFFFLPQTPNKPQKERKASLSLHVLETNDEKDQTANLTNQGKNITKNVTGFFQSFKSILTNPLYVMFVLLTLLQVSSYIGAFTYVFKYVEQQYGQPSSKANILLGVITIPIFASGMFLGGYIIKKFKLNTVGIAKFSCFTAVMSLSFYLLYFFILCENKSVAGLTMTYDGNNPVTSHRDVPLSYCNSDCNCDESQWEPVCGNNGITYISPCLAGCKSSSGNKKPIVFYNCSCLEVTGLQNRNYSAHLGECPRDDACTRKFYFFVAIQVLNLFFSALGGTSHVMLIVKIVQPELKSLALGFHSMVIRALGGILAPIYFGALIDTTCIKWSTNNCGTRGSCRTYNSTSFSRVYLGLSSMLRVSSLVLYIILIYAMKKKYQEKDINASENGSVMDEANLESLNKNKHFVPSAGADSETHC
Protocol: as §3, with “M” for “µM”, “OATP1B1” for “OATP1B3”, “L)” for “μL)”

[6] = Partition coefficient (log P butanol/buffer); format: physicochemical; details: 1-butanol / 50 mM Tris-HCl, pH 7.4, room temperature
[7] = test system: freshly isolated rat hepatocytes; assay: Uptake into freshly isolated rat hepatocytes; details: for Uptake rat hepatocytes: 100 μmol Gd/L, 10 min, 37° C., relative to RC1 (Gd-EOB-DTPA); for Inhibition Rifampicine: rat hepatocyte uptake, test item and Rifampicine 1:1, each 100 μM
Protocol: After incubation the adherent hepatocytes were washed once with 37° C. Hepes carbonate transport buffer (500 μL/well). The test items and RC1 were prepared from stock solutions (180 to 500 mM concentration) in Hepes carbonate transport buffer at pH 7.4 to reach a final concentration of 100 μmol Gd/L. The specific uptake of the test item or RC1 into rat hepatocytes via OATP1B1 and OATP1B3 was challenged using a known OATP1B1/1B3 inhibitor (Rifampicine, Fa. Sigma R3501, test item and inhibitor 1:1 each 100 μM final concentration). The prepared rat hepatocyte plates were incubated with test solutions (500 μL/well) at 37° C. for 10 min using a thermoshaker (Fa. Grant Bio, PHMP). Triplicates were performed for each test item. After incubating the cells were washed once with cold PBS buffer (Fa. Gibco, Dulbeccos PBS (+)). After washing the intact hepatocytes were lysed by addition of 500 μL cold 0.01% Triton-X 100 in Millipore water for 1 h. […] As a reference standard RC1 is used in the same well plate. The hepatocyte uptake of the test compound is calculated relative to RC1 (resulting in the unit % of RC1).

SMILES | r1 water [1] [L/mmol/s] | r1 human plasma [2] [L/mmol/s] | Uptake into OATP1B3-HEK 293 cells [3] | Inhibition Rifampicine [3] [% inhibition] | Solubility [4] [mM] | Uptake into OATP1B1-HEK 293 cells [5] | Inhibition Rifampicine [5] [% inhibition] | Log P (partition coefficient butanol/buffer) [6] | Uptake rat hepatocytes [7] | Inhibition Rifampicine [7] [% inhibition]
CCOCCOCCOc1ccc(C[C@@H](C(=O)O)N2CCN(CC(=O)[O-])CCN(CC(=O)[O-])CCN(CC(=O)[O-])CC2)cc1.[Gd+3] [Example 3, gadolinium 2,2′,2″-{10-[(1S)-1-carboxy-2-{4-[2-(2-ethoxyethoxy)ethoxy]phenyl}ethyl]-1,4,7,10-tetraazacyclododecane-1,4,7-triyl}triacetate] | 4.3 | 6.5 | 18 % of RC1 | 89 | >331 | 63 % of RC1 | 29 | −1.61 | 47 % of RC1 | 96
CCOCCOCCOCCOc1ccc(CC(C(=O)O)N2CCN(CC(=O)[O-])CCN(CC(=O)[O-])CCN(CC(=O)[O-])CC2)cc1.[Gd+3] (centres unmarked) [Example 10, gadolinium 2,2′,2″-{10-[1-carboxy-2-(4-{2-[2-(2-ethoxyethoxy)ethoxy]ethoxy}phenyl)ethyl]-1,4,7,10-tetraazacyclododecane-1,4,7-triyl}triacetate] | 4.5 | 6.6 | 13 % of RC1 | 95 | >272 | 87 % of RC1 | 43 | −1.70 | 49 % of RC1 | 90
CCOCCOCCOCCOc1ccc(CC(C(=O)O)N2CCN(CC(=O)[O-])CCN(C(COC)C(=O)[O-])CCN(CC(=O)[O-])CC2)cc1.[Gd+3] (centres unmarked) [Example 13, gadolinium 2-{7-[1-carboxy-2-(4-{2-[2-(2-ethoxyethoxy)ethoxy]ethoxy}phenyl)ethyl]-4,10-bis(carboxylatomethyl)-1,4,7,10-tetraazacyclododecan-1-yl}-3-methoxypropanoate] | 5.2 | 7.0 | 31 % of RC1 | 93 | 67 | 109 % of RC1 | 30 | −1.53 | 49 % of RC1 | 86
CCCCOc1ccc(CC(C(=O)O)N2CCN(CC(=O)[O-])CCN(CC(=O)[O-])CCN(CC(=O)[O-])CC2)cc1.[Gd+3] (centres unmarked) [Example 14, gadolinium 2,2′,2″-{10-[2-(4-butoxyphenyl)-1-carboxyethyl]-1,4,7,10-tetraazacyclododecane-1,4,7-triyl}triacetate] | 4.3 | 13.3 | 69 % of RC1 | 97 | 5 | 856 % of RC1 | 98 | −0.38 | 96 % of RC1 | 98
CCOCCOCCOc1ccc(CCC[C@H](C(=O)O)N2CCN([C@@H](CO)C(=O)[O-])CCN([C@@H](CO)C(=O)[O-])CCN([C@@H](CO)C(=O)[O-])CC2)cc1.[Gd+3] [Example 18, gadolinium (2S,2'S,2″'S)-2,2′,2″-{10-[(1R)-1-carboxy-4-{4-[2-(2-ethoxyethoxy)ethoxy]phenyl}butyl]-1,4,7,10-tetraazacyclododecane-1,4,7-triyl}tris(3-hydroxypropanoate)] | 5.5 | 7.7 | – | 96 | >354 | – | 76 | −1.11 | 75 % of RC1 | 91
CCOCCOCCOc1ccc(CCC[C@H](C(=O)O)N2CCN([C@H](CO)C(=O)[O-])CCN([C@H](CO)C(=O)[O-])CCN([C@H](CO)C(=O)[O-])CC2)cc1.[Gd+3] [Example 19, gadolinium (2R,2′R,2″R)-2,2′,2″-{10-[(1R)-1-carboxy-4-{4-[2-(2-ethoxyethoxy)ethoxy]phenyl}butyl]-1,4,7,10-tetraazacyclododecane-1,4,7-triyl}tris(3-hydroxypropanoate)] | 5.3 | 9.0 | – | 96 | >410 | – | 92 | −0.95 | 92 % of RC1 | 92

— patent US20260083864A1, “CONTRAST AGENTS FOR USE IN DIAGNOSTIC COMPUTED TOMOGRAPHY IMAGING” (Bayer Aktiengesellschaft, priority 2022, published 2026)
